Several values for one entry are separate records, joined by “and”; a condition that tells them apart may be missing. Identical values can stand only once. In the oligonucleotide strings, read from the 5' end, every base follows the letter of its sugar. An asterisk marks phosphorothioate; unmarked linkages are phosphodiester. Other units and linkages are bracketed, terminal groups are in braces. A string of capitals states the bases alone. e = 2'-O-(2-methoxyethyl) (MOE); [5mC] = 5-methylcytosine; d = 2'-deoxy (DNA)
Key:
human TGF-beta1 mRNA [1] = experiment: Antisense inhibition of human TGF-beta1 mRNA in HuVEC cells, single 10 nM dose, Lipofectamine 2000 (Example 2); format: cell-based; conditions: for % inhibition: 10 nM oligonucleotide, HuVEC, relative to untreated control cells; for inhibition of a TGF-beta1 mRNA: threshold lists of Oligo IDs, 10 nM
Summary of the method: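 Percent inhibition relative to untreated controls, from qRT-PCR of mRNA corrected for total RNA (RIBOGREEN). Cells were exposed 4 h to 10 nM phosphorothioate 2-13-5 MOE gapmers with Lipofectamine 2000 at 5,000 cells/well. RNA was harvested after roughly 24 h recovery.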

human TGF-beta1 mRNA [2] = experiment: Dose-dependent antisense inhibition of human TGF-beta1 in HuVEC cells, Lipofectamine 2000, 0.9375-30 nM (Example 3); format: cell-based; conditions: for percent inhibition of TGF-beta1: Lipofectamine 2000; for IC50: Lipofectamine 2000, Example 3
Method: Cells were plated at a density of 5,000 cells per well and transfected using Lipofectamine™ 2000 reagent with 0.9375 nM, 1.875 nM, 3.75 nM, 7.5 nM, 15 nM, and 30 nM concentrations of antisense oligonucleotide for 4 hours, as specified in Table 3. After a recovery period of approximately 16 hours, RNA was isolated from the cells and TGF-beta1 mRNA levels were measured by quantitative real-time PCR. Human TGF-beta1 primer probe set RTS 2980 (forward sequence CTCTCCGACCTGCCACAGA, SEQ ID NO: 160; reverse sequence […], SEQ ID NO: 53; probe sequence CCCTATTCAAGACCACCCACCTTCTGGTX, SEQ ID NO: 161) was used to measure mRNA levels. TGF-beta1 mRNA levels were adjusted according to total RNA content, as measured by RIBOGREEN®. Results are presented as percent inhibition of TGF-beta1, relative to untreated control cells.

[3] = gapmers targeted to SEQ ID NO: 1
[4] = gapmers targeted to SEQ ID NO: 2

Substance	% inhibition (human TGF-beta1 mRNA [1]; [3]) [%]	inhibition of a TGF-beta1 mRNA (human TGF-beta1 mRNA [1])	percent inhibition of TGF-beta1 (human TGF-beta1 mRNA [2]; 0.9375 nM) [%]	percent inhibition of TGF-beta1 (human TGF-beta1 mRNA [2]; 1.875 nM) [%]	percent inhibition of TGF-beta1 (human TGF-beta1 mRNA [2]; 3.75 nM) [%]	percent inhibition of TGF-beta1 (human TGF-beta1 mRNA [2]; 7.5 nM) [%]	percent inhibition of TGF-beta1 (human TGF-beta1 mRNA [2]; 15 nM) [%]	percent inhibition of TGF-beta1 (human TGF-beta1 mRNA [2]; 30 nM) [%]	IC50 (human TGF-beta1 mRNA [2]) [nM]	% inhibition (human TGF-beta1 mRNA [1]; [4]) [%]
413970 (antisense eG*e[5mC]*d[5mC]*dT*d[5mC]*dA*dG*dG*d[5mC]*dT*dG*d[5mC]*dT*d[5mC]*d[5mC]*eT*e[5mC]*eG*eG*e[5mC]) [compound 413970]	87	60% and 65% and 70% and 75% and 80% and 85%	48	64	81	91	94	95	–	–
413979 (antisense eG*eG*d[5mC]*dT*d[5mC]*d[5mC]*d[5mC]*dA*dG*d[5mC]*dG*dG*d[5mC]*dA*dA*e[5mC]*eG*eG*eA*eA) [compound 413979]	87	60% and 65% and 70% and 75% and 80% and 85%	42	62	80	92	95	94	–	–
414022 (antisense eG*eG*dG*d[5mC]*dT*d[5mC]*d[5mC]*dG*dG*dT*dT*d[5mC]*dT*dG*d[5mC]*eA*e[5mC]*eT*e[5mC]*eT) [compound 414022]	84	60% and 65% and 70% and 75% and 80%	31	50	76	85	91	92	1.67	–
414037 (antisense eG*eG*dG*dT*dG*dT*d[5mC]*d[5mC]*dT*dT*dA*dA*dA*dT*dA*e[5mC]*eA*eG*e[5mC]*e[5mC]) [compound 414037]	89	60% and 65% and 70% and 75% and 80% and 85%	56	74	87	93	93	92	–	–
414058 (antisense eA*eG*dG*dT*d[5mC]*dA*dA*dG*d[5mC]*d[5mC]*dA*dT*dG*dT*dG*eG*e[5mC]*eA*e[5mC]*e[5mC]) [compound 414058]	–	60% and 65% and 70% and 75% and 80%	46	65	78	88	87	81	–	81
414102 (antisense eT*eT*dT*dG*dA*dA*d[5mC]*dT*dA*d[5mC]*dA*dT*dG*dG*dG*eT*e[5mC]*e[5mC]*eT*e[5mC]) [compound 414102]	–	60% and 65% and 70% and 75% and 80% and 85%	36	54	70	84	87	84	1.42	86
